{"source": "patent US20100068747A1", "about": "“Generic Assay for Monitoring Endocytosis” (Evotec Technologies GmbH, priority 2005, published 2010)", "key": {"[1]": {"tested_on": "U2OS/ETAR-GFP cells", "assay": "Lectin labeling of fixed cells, U2OS/ETAR-GFP", "type": "cell-based, human", "conditions": "TRITC-lectin 10 nM and 20 nM", "description": "(§1) Lectin labeling of fixed cells was conducted as follows: To detach confluent cells in order to prepare experiments for internalization studies, cells were always treated with EDTA solution instead of trypsin solution. For all seeding, washing, and labeling steps in 96-well plates a working volume of 100 μl per well was assessed. Cells were seeded out into a 96-well plate at different concentrations. U2OS/ETAR-GFP suspensions were adjusted to yield 2*10^4 cells/well, both of the CHO cell lines must be at 2.5*10^4 cells/well. Cells became confluent after 24 hours of incubation. In the following, they were washed with phosphate buffered saline (PBS) and fixed with 3% PFA for 20 minutes at RT. Then, cells were washed again with PBS and incubated in 10 nM and 20 nM solutions of each TRITC-lectin candidate in PBS, respectively. Again, cells were washed with PBS to remove excess lectin, and wells were refilled with PBS for analysis. For specificity controls, lectin solutions were incubated for 30 minutes prior to the application with an excess of the monosaccharide that represents the respective glyco-epitope.\n(§2) The following microscopy and image analysis techniques were employed. When utilizing the epifluorescence microscope magnifications were adjusted according to the purpose of observation, e.g. single cell vs. cell collective. Concerning the filters U-MNU was used for Hoechst, U-MSWB for GFP, and U-N41007 for TRITC detection. Hoechst images were taken at 50 ms exposure time, GFP images at 100 to 200 ms and TRITC images needed 500 to 1000 ms. Overlay images were assembled with AnalySIS and tuned in color intensity to obtain the desired color contrast. Images taken to compare two experimental conditions, e.g. control vs. stimulus, featured identical exposure parameters. If possible, well areas were chosen that reflect similar states of confluence. Utilizing the Opera confocal fluorescence imager, the instrument was calibrated running standard methods for skew cropping (spatial camera alignments) and camera intensity normalization."}, "[2]": {"tested_on": "U2OS/ETAR-GFP cells", "assay": "Lectin labeling of live cells, U2OS/ETAR-GFP", "type": "cell-based, human"}, "[3]": {"tested_on": "CHO/PAR-2 cells", "assay": "Lectin labeling of fixed cells, CHO/PAR-2", "type": "cell-based", "conditions": "TRITC-lectin 10 nM and 20 nM", "description": "as §1, §2"}, "[4]": {"tested_on": "U2OS/ETAR-GFP cells", "assay": "Lectin labeling of live cells, U2OS/ETAR-GFP", "type": "cell-based, human", "conditions": "TRITC-lectin, 10 nM at maximum", "description": "Lectin labeling of live cells was conducted as follows: Cells were seeded as described above. After 24 hours cells were washed once with PBS and incubated in the incubator for another 2 hours in the respective standard medium without serum supplement to deprive them of serum factor mediated stimuli. This step was termed starvation period. Subsequently, cells were washed gently with PBS and incubated with 37° C. tempered assay medium comprised of Hank's Balanced Salt Solution (HBSS) pH 7.4, containing 20 mM HEPES and 30 mM D-glucose. The plate was left at RT for 30 minutes to slowly level its temperature and, thus, avoid capturing of temperature drop induced membrane dynamics. This period was termed leveling period. Then, assay medium was withdrawn and wells refilled with TRITC-lectin solutions at RT to start cell labeling. Several lectin concentrations in the low nano-molar range were tested. Molar concentrations were calculated from the data provided by Vector Labs. The plate was placed on a rotating shaker at low revolutions for 10 minutes while incubating. The start of the lectin incubation is referred to as assay starting point with t=0 min. After the 10 min incubation period the cells were gently washed with PBS and wells refilled with assay buffer at RT. Instantly thereafter, fluorescence signals were monitored predominately using the epifluorescence microscope.\nas §2"}, "[5]": {"molecular_target": "T1, endothelin A receptor (ETAR) (Homo sapiens, UniProt P25101)", "T1 construct": "expressed in transfected cells; host or cells: CHO-K1 cell line clone #19, prepared in-house", "T1 sequence (P25101 21-427)": "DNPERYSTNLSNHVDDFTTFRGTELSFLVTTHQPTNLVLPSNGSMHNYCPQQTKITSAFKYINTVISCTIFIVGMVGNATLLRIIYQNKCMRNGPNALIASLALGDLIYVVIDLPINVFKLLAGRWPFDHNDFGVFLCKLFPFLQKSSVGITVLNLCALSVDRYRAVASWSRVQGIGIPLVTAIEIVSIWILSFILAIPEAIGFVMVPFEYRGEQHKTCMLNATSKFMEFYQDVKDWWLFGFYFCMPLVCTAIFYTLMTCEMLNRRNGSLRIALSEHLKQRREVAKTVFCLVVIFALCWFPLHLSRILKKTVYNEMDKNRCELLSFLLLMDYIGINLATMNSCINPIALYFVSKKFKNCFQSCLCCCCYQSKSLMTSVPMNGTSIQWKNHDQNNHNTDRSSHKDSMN", "assay": "Lectin labeling of live cells with receptor targeted stimulation, CHO/ETAR", "type": "cell-based, Chinese hamster", "conditions": "endothelin 1 stimulation", "description": "With regard to lectin labeling of live cells with receptor target stimulation, lyophilized PAR-2 peptide was resuspended in 20 mM HEPES with 0.1% BSA at 4 mM. […] The live cell labeling protocol was applied as described above. Additionally, endothelin and PAR-2 agonist peptide were added to the assay medium employed after the lectin labeling step at concentrations of 40 nM and 100 μM, respectively. For controls, same amount of resuspension liquid without agonist was supplemented. Instantly, fluorescence signals were monitored."}}, "note": "“Also recorded” adds a separate entry of the source."}
{"substance": "succinylated Triticum vulgaris (wheat germ) agglutin [sWGA]", "values": [{"measurement": "Staining of U2OS/ETAR-GFP", "setting": "[1]", "value": "extensive fluorescence was observed at the cell surface"}, {"measurement": "delay in spot formation", "setting": "[2]; pH 6.8, U2OS cells", "value": 20, "unit": "min"}, {"measurement": "spot formation at increased pH", "setting": "[2]; pH 8.0, U2OS cells", "value": "accelerated"}, {"measurement": "Staining of CHO/PAR-2", "setting": "[3]", "value": "signals clearly marking individual cells; also recorded: cell surface"}, {"measurement": "Live cell staining of U2OS/ETAR-GFP", "setting": "[4]", "value": "spot formation"}, {"measurement": "early spot formation, time after stimulation", "setting": "[5]", "value": "20 to 30", "unit": "min"}]}
